Data: patent US20080063628A1, “METHODS TO PROMOTE CELL DIFFERENTIATION” (priority 2006, published 2008)

System: amniotic fluid-derived cells
Test: Chronic trichostatin A treatment, gene expression by RT-PCR (Example 4)
Type: cell-based, human
Description: Amniotic fluid derived cells were obtained according to the methods described in Example 14. Cells were seeded into a 24-well tissue culture plate at a density of 5000/cm^2 and cultured in AMNIOMAX (Invitrogen) under standard cell culture conditions until confluent. After the cells reached confluency, sample wells were treated with either 500 nM or 1.0 μM trichostatin A diluted in DMSO and medium; control wells were treated with an equivalent concentration of DMSO. At 24 hour intervals over the three day incubation period, cultures underwent a complete medium change, and a fresh dilution of trichostatin A or DMSO was added as appropriate.
RNA samples were obtained from the treated cultures at 24 hour intervals after the initial addition of trichostatin A or DMSO. The culture medium was removed, cells were washed with PBS, and RLT lysis buffer with P-mercaptoethanol (Qiagen) was added. RNA was purified using the RNeasy Mini Kit (Qiagen); RNA quantity and quality was determined using a spectrophotometer. cDNA was made using the iScript cDNA synthesis kit (BioRad).
Expression levels of Sox17, HNF-3 beta, Pdx-1, insulin, and glucagon were determined by RT-PCR. Samples of 20 ng cDNA were used in each reaction, performed on an Applied Biosystems 7500 according to the methods described in Example 15. Data were analyzed using the accompanying software. Human pancreas cDNA was included as a control. Results were normalized against GAPDH expression levels. Basal expression of insulin and Sox-17 genes was detectable in untreated amniotic fluid-derived cells. However, expression of glucagon and Pdx-1 genes was not detectable in untreated cells by RT-PCR up to cycle 40. HNF-3 beta was not detected in untreated cells at 24-hours in culture but was weakly expressed at 48 and 72 hours culture time.
Real-time PCR amplifcation and quantitative analysis. Unless otherwise stated, all reagents were purchased from Applied Biosystems. Real-time PCR reactions were performed using the ABI PRISM™ 7500 Sequence Detection System. TAQMAN™ FAST UNIVERSAL PCR MASTER MIX™ (ABI, CA) was used with 20 ng of reverse transcribed RNA in a total reaction volume of 20 μl. Each cDNA sample was run in duplicate to allow correction of pipetting errors. Primers and FAM-labeled TAQMAN™ probes were used at concentrations of 200 nM. The level of expression for each target gene was normalized using the pre-developed Applied Biosystem's human glyceraldehyde-3-phosphate dehydrogenase (GAPDH) endogenous control kit. Primers and probes were designed using either ABI PRISM PRIMER EXPRESS™ software or a pre-developed ABI gene analysis kit. For each gene, either one of the primers or the probe were designed to be exon-boundary spanning. This eliminated the possibility of the primers/probe binding to any genomic DNA present. The primer and probe sets are listed as follows: Pdx-1 (Hs00426216), Insulin (Hs00355773), glucagon (Hs00174967), and FoxA2 (HNF 3-beta) (Hs00232764). The remaining primers were designed using the PRIMERS program (ABI, CA). After an initial 95° C. incubation for 20 sec, samples were cycled 40 times in two stages: a denaturation step at 95° C. for 3 sec, followed by an annealing/extension step at 60° C. for 30 sec.
For each primer/probe set, a cycle time value was determined as the cycle number at which the fluorescence intensity of the PCR reaction reached a specific value in the middle of the exponential region of amplification. An increase in expression of a gene corresponded to a decrease in the number of cycles required for the fluorescence intensity to reach this value.

## CC(/C=C/C(=O)NO)=C\[C@@H](C)C(=O)c1ccc(N(C)C)cc1 [trichostatin A]
500 nM renewed daily, 24 hours
  HNF-3 beta gene expression: +++ (detectable at less than 35 cycles by RT-PCR with std error less than 0.9)
  Insulin gene expression: nd (not detectable at >40 cycles by RT-PCR)
  PDX-1 gene expression: +++ (detectable at less than 35 cycles by RT-PCR with std error less than 0.9)
  Sox17 gene expression: +++ (detectable at less than 35 cycles by RT-PCR with std error less than 0.9)
  glucagon gene expression: + (detectable between 35 and 40 cycles by RT-PCR)
500 nM renewed daily, 48 hours
  HNF-3b gene expression: +++ (detectable at less than 35 cycles by RT-PCR with std error less than 0.9)
  Insulin gene expression: nd (not detectable at >40 cycles by RT-PCR)
  PDX-1 gene expression: + (detectable between 35 and 40 cycles by RT-PCR)
  Sox17 gene expression: +++ (detectable at less than 35 cycles by RT-PCR with std error less than 0.9)
  glucagon gene expression: + (detectable between 35 and 40 cycles by RT-PCR)
500 nM renewed daily, 72 hours
  HNF-3b gene expression: +++ (detectable at less than 35 cycles by RT-PCR with std error less than 0.9)
  Insulin gene expression: nd (not detectable at >40 cycles by RT-PCR)
  PDX-1 gene expression: +++ (detectable at less than 35 cycles by RT-PCR with std error less than 0.9)
  Sox17 gene expression: +++ (detectable at less than 35 cycles by RT-PCR with std error less than 0.9)
  glucagon gene expression: + (detectable between 35 and 40 cycles by RT-PCR)
1 μM renewed daily, 24 hours
  HNF-3 beta gene expression: +++ (detectable at less than 35 cycles by RT-PCR with std error less than 0.9)
  Insulin gene expression: nd (not detectable at >40 cycles by RT-PCR)
  PDX-1 gene expression: +++ (detectable at less than 35 cycles by RT-PCR with std error less than 0.9)
  Sox17 gene expression: +++ (detectable at less than 35 cycles by RT-PCR with std error less than 0.9)
  glucagon gene expression: +++ (detectable at less than 35 cycles by RT-PCR with std error less than 0.9)
1 μM renewed daily, 48 hours
  HNF-3b gene expression: +++ (detectable at less than 35 cycles by RT-PCR with std error less than 0.9)
  Insulin gene expression: nd (not detectable at >40 cycles by RT-PCR)
  PDX-1 gene expression: +++ (detectable at less than 35 cycles by RT-PCR with std error less than 0.9)
  Sox17 gene expression: +++ (detectable at less than 35 cycles by RT-PCR with std error less than 0.9)
  glucagon gene expression: ++ (detectable at less than 35 cycles by RT-PCR with std error greater than 0.9)
1 μM renewed daily, 72 hours
  HNF-3b gene expression: +++ (detectable at less than 35 cycles by RT-PCR with std error less than 0.9)
  Insulin gene expression: nd (not detectable at >40 cycles by RT-PCR)
  PDX-1 gene expression: +++ (detectable at less than 35 cycles by RT-PCR with std error less than 0.9)
  Sox17 gene expression: +++ (detectable at less than 35 cycles by RT-PCR with std error less than 0.9)
  glucagon gene expression: +++ (detectable at less than 35 cycles by RT-PCR with std error less than 0.9)
